Assay results reported in patent US20070027130A1, “Tricyclic 6-alkylidene-penem beta-lactamase inhibitors and beta-lactam antibiotic combination: a broad spectrum antibiotic” (priority 2005, published 2007).
In brackets after ≈: the same amount, converted by molar mass. Read-outs that look alike come from different tables or passages of the source.

How the values were obtained:
Experiment in all cases: MIC microbroth dilution
Assay type in all cases: cell-based
[1] = tested on: E. cloacae GC 1477 (AmpC); conditions: Enterobacter cloacae, β-lactamase class C, MHBII, 35° C. 18 hr, read-out: Minimal Inhibitory Concentration
Experimental: (§1) The in vitro activities of the antibiotics were determined by the microbroth dilution method as recommended by the National Committee for Clinical Laboratory Standards (NCCLS). (NCCLS. 2000. Methods for Dilution Antimicrobial Susceptibility Tests for Bacteria That Grow Aerobically; Approved Standards: M7-A5, vol. 19. National Committee for Clinical Laboratory Standards, Villanova, Pa.). Mueller-Hinton II broth (MHBII) (BBL Cockeysville, Md.), was used for the testing procedure. […]. The plates were incubated for 18-22 hours at 35 C. in ambient air.

[2] = tested on: E. cloacae GC 4142 (AmpC); conditions: Enterobacter cloacae
Experimental: as §1

[3] = tested on: E. cloacae GC 6991 (AmpC); conditions: Enterobacter cloacae, β-lactamase class C, MHBII, 35° C. 18 hr, read-out: Minimal Inhibitory Concentration
Experimental: as §1

[4] = tested on: E. cloacae GC 7065 TEM-26, SHV-12 Amp C inducable; conditions: Enterobacter cloacae, β-lactamase class A (ESBL), MHBII, 35° C. 18 hr, read-out: Minimal Inhibitory Concentration
Experimental: as §1

[5] = tested on: E. coli GAR 5929 TEM, OXA, Act-1 , CTX (By PCR only); conditions: Escherichia coli, β-lactamase class A, C, D, MHBII, 35° C. 18 hr, read-out: Minimal Inhibitory Concentration
Experimental: as §1

E. coli GC 1480 OXA-1 = conditions: Escherichia coli, GC1480OXA1, β-lactamase class D, MHBII, 35° C. 18 hr, read-out: Minimal Inhibitory Concentration
Experimental: as §1

E. coli GC 1995 (TEM-10) = conditions: Escherichia coli, β-lactamase class A (ESBL), MHBII, 35° C. 18 hr, read-out: Minimal Inhibitory Concentration
Experimental: as §1

[6] = tested on: E. coli GC 2021 (TEM-10 + pl 6.3); conditions: Escherichia coli, 18 h, read-out: Minimal Inhibitory Concentration
Experimental: as §1

E. coli GC 2804 (imp) = conditions: Escherichia coli, 18 h, read-out: Minimal Inhibitory Concentration
Experimental: as §1

E. coli GC 2847 (TEM-1) = conditions: Escherichia coli, β-lactamase class A, MHBII, 35° C. 18 hr, read-out: Minimal Inhibitory Concentration
Experimental: as §1

E. coli GC 2920 (IRT-2) = conditions: Escherichia coli, β-lactamase class A (IRT), MHBII, 35° C. 18 hr, read-out: Minimal Inhibitory Concentration
Experimental: as §1

[7] = tested on: E. coli GC 4971 OXA-1, TEM-1; conditions: Escherichia coli, β-lactamase class A, D, MHBII, 35° C. 18 hr, read-out: Minimal Inhibitory Concentration
Experimental: as §1

[8] = tested on: E. coli GC 6260 (TEM-1 + SHV-5); conditions: Escherichia coli, β-lactamase class A, A (ESBL), MHBII, 35° C. 18 hr, read-out: Minimal Inhibitory Concentration
Experimental: as §1

E. coli GC 6539 CMY-2 = conditions: Escherichia coli, GC6539CMY2, β-lactamase class C, MHBII, 35° C. 18 hr, read-out: Minimal Inhibitory Concentration
Experimental: as §1

[9] = tested on: E. coli LSU 80-8 GC 6265 TEM-1; conditions: Escherichia coli, read-out: MIC* (minimum inhibitory concentration)
Experimental: as §1

[10] = tested on: K. pn GC 2006 (TEM-10 + SHV-1); conditions: Klebsiella pneumoniae, β-lactamase class A, A (ESBL), MHBII, 35° C. 18 hr, read-out: Minimal Inhibitory Concentration
Experimental: as §1

[11] = tested on: K. pneumoniae GC 2825 Act 1 + 3 additional; conditions: Klebsiella pneumoniae, β-lactamase class A, A (ESBL), C, MHBII, 35° C. 18 hr, read-out: Minimal Inhibitory Concentration
Experimental: as §1

[12] = tested on: K. pneumoniae GC 7636 TEM-1 KPC-2 SHV-12; conditions: Klebsiella pneumoniae, 18 h, read-out: Minimal Inhibitory Concentration
Experimental: as §1

[13] = tested on: P. aeruginosa ATCC 27853 AmpC-inducable; conditions: Pseudomonas aeruginosa, ATCC27853, β-lactamase class C, MHBII, 35° C. 18 hr, read-out: Minimal Inhibitory Concentration
Experimental: as §1

[14] = tested on: P. aeruginosa PT 8411 PTZ-R*; conditions: Pseudomonas aeruginosa; P. aeruginosa PT 8411, piperacillin-tazobactam-resistant; MHBII, 35° C. 18 hr; read-out: Minimal Inhibitory Concentration
Experimental: as §1

[15] = tested on: P. aeruginosa PT 8503 PTZ-R; conditions: Pseudomonas aeruginosa, PT8503PTZR; P. aeruginosa PT 8503, piperacillin-tazobactam-resistant; MHBII, 35° C. 18 hr; read-out: Minimal Inhibitory Concentration
Experimental: as §1

[16] = tested on: S. maltophilia GC 1712(L1); conditions: Stenotrophomonas maltophilia, β-lactamase class B, MHBII, 35° C. 18 hr, read-out: Minimal Inhibitory Concentration
Experimental: as §1

[17] = tested on: S. marcescens PT 696 Inducible AmpC; conditions: Serratia marcescens, β-lactamase class C, MHBII, 35° C. 18 hr, read-out: Minimal Inhibitory Concentration
Experimental: as §1

CO/N=C(\C(=O)N[C@@H]1C(=O)N2C(C(=O)[O-])=C(C[N+]3(C)CCCC3)CS[C@H]12)c1csc(N)n1 [Cefepime]
MIC [1]: 4 µg/mL (≈ 8.32 µM) | MIC ([2]; E. cloacae GC 4142, β-lactamase class C, MHBII, 35° C. 18 hr, read-out: Minimal Inhibitory Concentration): 8 µg/mL (≈ 16.6 µM) | MIC ([2]; Table 3, E. cloacae GC4142 AmpC, read-out: MIC* (minimum inhibitory concentration)): 16 µg/mL (≈ 33.3 µM) | MIC [3]: 0.5 µg/mL (≈ 1.04 µM) | MIC [4]: 16 µg/mL (≈ 33.3 µM) | MIC [5]: > 16 µg/mL | MIC (E. coli GC 1480 OXA-1): 4 µg/mL (≈ 8.32 µM) | MIC (E. coli GC 1995 (TEM-10)): > 16 µg/mL | MIC [6]: 8 µg/mL (≈ 16.6 µM) | MIC (E. coli GC 2804 (imp)): 0.03 µg/mL (≈ 0.0624 µM) | MIC (E. coli GC 2847 (TEM-1)): 0.12 µg/mL (≈ 0.25 µM) | MIC (E. coli GC 2920 (IRT-2)): 0.06 µg/mL (≈ 0.125 µM) | MIC [7]: 2 µg/mL (≈ 4.16 µM) | MIC [8]: > 16 µg/mL | MIC (E. coli GC 6539 CMY-2): 2 µg/mL (≈ 4.16 µM) | MIC [9]: 0.06 µg/mL (≈ 0.125 µM) | MIC [10]: > 16 µg/mL | MIC [11]: 2 µg/mL (≈ 4.16 µM) | MIC [12]: > 16 µg/mL | MIC [13]: 2 µg/mL (≈ 4.16 µM) | MIC [14]: 16 µg/mL | MIC [15]: 8 µg/mL | MIC [16]: > 16 µg/mL | MIC [17]: 0.5 µg/mL (≈ 1.04 µM)
